Reference: patent US20080214661A1, “Process To Obtain Dibenzylbutyrolactonic, Tetrahydrofuranic Lignans And Their Synthetic And Semi-Synthetic Derivatives, Their Analgesic And Anti-Inflammatory Activities, Topical And/Or Systemic Formulations Containing Said Lignans And Their Respective Therapeutic Method” (FUNDACADO DE AMPARO A PESQUISA DO ESTADO DE SAO PAULO, priority 2005, published 2008)

How the values were obtained:
Format in all cases: in vivo
[1] = test system: rat foot edema induced by carrageenin; assay: rat foot edema induced by carrageenin; settings: oral administration; for inhibition as anti-inflammatory agent (rat foot edema): doses of 10, 20, 30 and 40 mg/kg, carrageenin 100 μg/foot, edema volume at third hour, dose for the value not stated
Protocol: Each bar represents the average ±SE (n=6) of the increase in edema volume (third hour) after the injection of carrageenin. Data were analyzed by one-way ANOVA and by Dunnett's multiple comparison variation test and the statistical significance was made for the level of p<0.05 (*) and p<0.01 (**).

[2] = test system: writhing induced by 0.6% acetic acid solution in mice; assay: writhing test induced by intraperitoneal injection of acetic acid; settings: oral administration, doses of 10, 20, 30 and 40 mg/kg; 0.6% acetic acid i.p. in mice; number of writhing in 20 minutes; dose for the value not stated
Protocol: Each bar represents the average ±SE (n=6) of the number of writhing in 20 minutes for different doses. Data were analyzed by one-way ANOVA and by Dunnett's multiple comparison variation test and the statistical significance was made for the level of p<0.05 (*) and p<0,01 (**)

[3] = test system: digestive system; assay: preliminary tests of side effects (gastric, biochemical, hematological)

Compound	efficacy as anti-inflammatory agent ([1]; 10-40 mg/kg, carrageenin-induced rat foot edema)	inhibition as analgesic agent (writhing test) [2] [%]	gastric effects [3]	inhibition as anti-inflammatory agent (rat foot edema) [1] [%]	other biochemical and hematological disturbances [3]
c1ccc(COC2OC[C@@H](Cc3ccc4c(c3)OCO4)[C@@H]2Cc2ccc3c(c2)OCO3)cc1 (stereo partly drawn) [compound 5, (-)—O-benzyl cubebin]	not efficient as an anti-inflammatory agent	89			
COc1ccc2c(c1)c(CC(=O)O)c(C)n2C(=O)c1ccc(Cl)cc1 [indomethacin, reference compound]			gastric effects as observed		
(-)-6,6′-dinitroinokinin [compound 7]		75		62	
Nc1cc2c(cc1CC1COC(=O)C1Cc1cc3c(cc1N)OCO3)OCO2 (single isomer, unassigned; (-)) [compound 8, (-)-6,6′-diaminohinokinin]		92	not evident	82	non-occurrence
O=C1OC[C@@H](Cc2ccc3c(c2)OCO3)[C@@H]1Cc1ccc2c(c1)OCO2 [compound 6, (-)-hinokinin]		95	not evident	71	non-occurrence
